Patent US20260015574A1, “METHODS FOR SHORTENING LAG PHASE DURATION IN MICROORGANISMS” (YEDA RESEARCH AND DEVELOPMENT CO. LTD., priority 2022, published 2026)

Tests used:
[1] = system: Phaeobacter inhibens DSM 17395; test: Growth / lag phase shortening assay of P. inhibens pure cultures with glucose; assay type: cell-based
Procedure: ASW was adjusted to pH 8 using HCl. If not otherwise stated, the medium was further supplemented with a source of carbon (glucose, 1 mM), nitrogen (NH4Cl, 5 mM), and sulfur (Na2SO4, 33 mM), referred to as ASW+CNS. […] A 96-well Tecan Infinite M Plex plate reader was used for high-resolution monitoring of bacterial growth dynamics at 30° C. An ImageStreamX Flow Imager system (Amnis) was used to characterize bacterial populations during the lag phase (FIG. 6). The growth of bacteria in co-culture with algae was monitored by counting colony forming units (CFU) on ½ YTSS agar plates. The growth of algae was monitored with a CellStream flow cytometer (Merck, Darmstadt, Germany).
To test whether methylated compounds affect the growth of bacteria, the inventors cultivated bacterial pure cultures with glucose as main growth substrate and supplemented the medium with the well-studied methylated compound dimethylsulfoniopropionate (DMSP). DMSP that is naturally produced by microalgae and found in detectable levels in seawater, is known to be metabolized by various bacteria. […] To quantify the lag phase shortening effect, the inventors calculated the Δlag time, which is the time difference between the commence of exponential growth in control cultures compared to treated cultures (FIG. 5B).
To reflect the natural low bacterial abundance in the oligotrophic ocean with low microalgal productivity, the current bacterial growth experiments were routinely initiated with an optical density (OD) of 0.00001. Such low initial ODs challenge the detection of cell divisions that occur prior to reaching an OD of at least 0.001, which is the theoretical limit of detection. To determine the actual length of the lag phase, the inventors analyzed bacterial cultures using imagining flow cytometry.

P. inhibens = test: Imaging flow cytometry of bacterial populations during the lag phase; assay type: cell-based, Phaeobacter inhibens; conditions: DMSP-treated cultures
Procedure: The bacterial strain Phaeobacter inhibens DSM 17395 was purchased from the German collection of microorganisms and cell cultures (DSMZ, Braunschweig, Germany) and stored at −80° C. with 20% glycerol. Routine cultivation of P. inhibens was conducted at 30° C. in artificial seawater medium (ASW) based on Goyet and Poisson (1989). […] A 96-well Tecan Infinite M Plex plate reader was used for high-resolution monitoring of bacterial growth dynamics at 30° C. […] The growth of bacteria in co-culture with algae was monitored by counting colony forming units (CFU) on ½ YTSS agar plates. The growth of algae was monitored with a CellStream flow cytometer (Merck, Darmstadt, Germany).
To reflect the natural low bacterial abundance in the oligotrophic ocean with low microalgal productivity, the current bacterial growth experiments were routinely initiated with an optical density (OD) of 0.00001. […] To determine the actual length of the lag phase, the inventors analyzed bacterial cultures using imagining flow cytometry. […]

[2] = artificial seawater medium, 1 mM glucose, micromolar DMSP

C[S+](C)CCC(=O)[O-] [DMSP, dimethylsulfoniopropionate]
amount of DMSP per cell corresponding to the minimal effective concentration ([1]; 2 nM DMSP per 25,000 cells/mL): 80 amol
lag phase shortening in the presence of TMP ([1]; 2 μM DMSP, culture with TMP supplemented with nucleotides): still elicited lag phase shortening
growth rate [1, 2]: not affected
lag time [1, 2]: the lag time was shortened
lag phase shortening effect under salt stress ([1]; high salt conditions (FIG. 19A)): enhance the lag phase shortening effect
growth of the bacterium ([1]; micromolar concentrations of DMSP, glucose as main growth substrate): stimulate the growth of the bacterium
minimal DMSP concentration that triggered a significant lag phase shortening ([1]; per 25,000 cells/mL (OD 0.00001), glucose as main carbon source): 2 nM
lag phase shortening effect under temperature stress ([1]; temperatures that deviate from the 30° C. optimum (FIG. 19B)): enhance the lag phase shortening effect
time at which transition from aggregates to single-celled bacteria is concluded (P. inhibens): 3 h
